Experimental data from patent US12098127B2, “Salt form of estrogen receptor downregulator, crystalline form thereof, and preparation method therefor” (LUOXIN PHARMACEUTICAL (SHANGHAI) CO., LTD., priority 2018, dated 2024).
Converted amounts (≈) assume the structure as drawn. Like-named read-outs stand apart in the source and are kept apart here. Each block holds one compound with its values, some of them ahead of it.

How the values were obtained:
[1] = Solubility test in water and biological vehicles (FaSSIF, FeSSIF); type: physicochemical; conditions: for solubility at 24 h: thermodynamic from solid, 37° C., HPLC, crystal form A calculated based on the free acid
[2] = In vivo PK experiments in beagle dogs, oral gavage
Procedure: The samples were detected by LC-MS/MS, and AUC, Cmax, and Tmax parameters were calculated by employing WinNonlin version 6.4.

[3] = background art; cited from earlier work
[4] = dog, blood, beagle dogs, P.O. 300 mg/kg, single oral gavage

solubility at 24 h ([1]; FaSSIF (simulated pre-meal intestinal fluid), read-out: Solubility in FaSSIF): 117 µg/mL (≈ 244 µM)
solubility at 24 h ([1]; FeSSIF (simulated post-meal intestinal fluid), read-out: Solubility in FeSSIF): 440 µg/mL (≈ 916 µM)
solubility at 24 h ([1]; purified water, read-out: Solubility in H2O): 8 µg/mL (≈ 16.7 µM)
AUC(0-t) [2, 4]: 613 µM·h
Cmax [2, 4]: 43.5 µM
Tmax [2, 4]: 6 h
MRT last ([2]; dog, blood, beagle dogs, P.O. 300 mg/kg, single oral gavage, read-out: MRT0-last): 10.6 h
Structure (SMILES): CC/C(=C(/c1ccc(/C=C/C(=O)O)cc1)c1[nH]c2ccccc2c1Cl)c1ccc(F)cc1Cl [compound I-8]

Solubility in biological media compared with compound 1-8 ([1]; biological media, versus compound 1-8): significantly improved
Solubility in water compared with free acid compound 1-8 ([1]; water, versus compound 1-8): nearly hundredfold improved
Amount of exposure in the organism compared with compound 1-8 ([2]; in vivo pharmacokinetic studies, versus compound 1-8): significantly increased
Structure (SMILES): CC/C(=C(/c1ccc(/C=C/C(=O)O)cc1)c1[nH]c2ccccc2c1Cl)c1ccc(F)cc1Cl [compound of formula (I)]

Structure (SMILES): C[C@]12CC[C@@H]3c4ccc(O)cc4C[C@@H](CCCCCCCCC[S+]([O-])CCCC(F)(F)C(F)(F)F)[C@H]3[C@@H]1CC[C@@H]2O (some centres unmarked) [fulvestrant]
Oral bioavailability [3]: zero oral bioavailability
